Measured values: US7326540B2, “Methods for identifying compounds that modulate stabilization of secretase-associated proteins” (priority 2003, dated 2008)

Key:
E-cadherin = E-cadherin proteolysis in A431 cells during STS-induced apoptosis (Western blot, C36 antibody); assay type: cell-based, human; conditions: then STS 6 hours
Description: FIG. 11 provides digitized images and graphs showing that apoptosis enhances γ-secretase activity and levels of γ-secretase complex proteins. FIG. 11a: Apoptosis was induced in CAB, CHO-CC99/PS1 and CHO-APP 751/PS1 by STS treatment for 6 hours with or without zVAD (100 μM). Secreted Aβ1−total was measured by ELISA. […] Each bar represents the mean and SD of quadruplicate determinations. FIG. 11b: Western blot analysis with the antibody, A8717, detected endogenous APP-FL and overexpressed C99 in CHO-CC99/PS1cells, while overexpressed APP-FL and C83 were detected in CHO-APP751/PS1 cells. FIG. 11c: A431 human epithelial cells were pre-incubated for 30 min in the absence (−) or presence (+) of zVAD-FMK (100 μM), L-685,458 (0.5 μM) or GM6001 (2.5 μM). Cells were then treated with STS for 6 hours to induce apoptosis, and cell extracts were probed with anti-E-cadherin C36 antibody. FIG. 11d: Protein levels of γ-secretase complex components were monitored by Western blotting employing the anti-nicastrin, Ab14, PNT2, H2D2 antibodies. Densitometry analysis was performed using NIH image software. Each bar represents the mean and SEM of at least three experiments. FIG. 11e: Nicastrin was transiently transfected in the A431 cells. Western blot analysis for E-cadherin and γ-secretase complex component was performed as in FIG. 11c and FIG. 11d β-tubulin was used as loading control.
To confirm that apoptosis/caspase activation increases γ-secretase activity, we next examined the proteolysis of E-cadherin, another γ-secretase substrate (Marambaud, P. et al., Embo J21, 1948-56 (2002)) during apoptosis. We confirmed that caspase activation enhanced the production of E-Cad/CTF1 (Steinhusen, U. et al., J Biol Chem 276, 4972-80 (2001)), E-Cad/CTF2 (Marambaud, P. et al., 2002) (˜2- and 3-fold increase by densitometry analysis, respectively), and generated E-Cad/CTF3 (Marambaud, P. et al., 2002) (FIG. 11c). […]

proteasome = test: Proteasome inhibition: BACE and nicastrin protein levels by Western blot in H4 cells; assay type: cell-based, human
Description: Densitometric analysis was performed with NIH image and reported in bar graphs (FIG. 8B).

BACE = BACE protein levels by Western blot and densitometry in CAB cells; assay type: cell-based, Chinese Hamster; conditions: etoposide (ETO) treatment, CAB cells
Description: (§1) Chinese Hamster Ovary (CHO) cells expressing APP751 and BACE (CAB), CHO cells expressing full-length APP and wild-type PS1 (CHO-APP751/PS1) or expressing C99 and wild-type PS1 (CHO-CC99/PS1), H4 human neuroglioma cells expressing APP751 (H4-APP751), mouse embryonic fibroblast (MEF), embryonic stem (ES) cells, and human epithelial A431 cells were grown as described previously (Marambaud, P. et al., Embo J 21, 1948-56 (2002); Cai, H. et al., Nat Neurosci 4, 233-4 (2001); Sato, N. et al., Nat Cell Biol 2, 863-70 (2000); Puglielli, L., Ellis, B. C., Saunders, A. J. & Kovacs, D. M., J Biol Chem 278, 19777-83 (2003); Wolfe, M. S. et al., Nature 398, 513-7 (1999)). For the induction of apoptosis, we used staurosporine or etoposide (Calbiochem (EMD Biosciences, San Diego, Calif.)). For Aβ measurements, cells were seeded at the density of 0.5×10^6 cells per well in 6 well plates. After 48 hours, cells were treated with either STS (1 μM) for 6 hours. In order to inhibit caspase activation a sister plate of cells was pre-treated with zVAD (1001M, Enzyme Systems Products) for 1 hour before STS treatment. For time-course experiments, cells were seeded at the density of 2×10^6 cells per 100 mm dish and treated with STS (1 μM) or etoposide (100 μg/mL). At different time points (0, 3, 6, 9, 12 and 24 hours), the cells were scraped, centrifuged and then lysed in buffer containing 1% NP40. Western blot analysis was performed as previously described (Tesco, G., Koh, Y. H. & Tanzi, R. E., J Biol Chem 278, 46074-80 (2003)). Densitometry analysis was performed on a Macintosh computer using the public domain NIH Image program (developed at the U.S. National Institutes of Health and available on the Internet at http://rsb.info.nih.gov/nih-image/).
It has been previously shown that overexpression of BACE enhances β-secretase cleavage of APP leading to the accumulation of intracellular C99 (Vassar, R. et al., Science 286, 735-41 (1999)). We first asked whether apoptosis/caspase activation leads to accumulation of C99 owing to increased β-secretase activity.

[1] = system: Aβ production in CHO cells overexpressing APP751 and PS1 WT; test: Secreted Aβ ELISA in CHO cells overexpressing APP751 and PS1 during induced apoptosis; assay type: cell-based, Chinese Hamster; conditions: etoposide 100 μg/mL, 12 hrs
Description: We examined Aβ generation induced by apoptosis in CHO cell lines. We used CHO cell lines stably overexpressing both APP751 and PS1 WT. For the induction of apoptosis, we used 1 μM staurosporine (STS) in serum free media. Secreted Aβ was measured in the conditioned media of cells treated with STS for 6 hrs using a sensitive ELISA assay [courtesy of Dr. Dennis Selkoe; M. S. Wolfe et al., Nature 398, 513-7 (1999)].
Treatment with either STS for 6 hrs or etoposide for 12 hrs induced from 10 to 20% of cell death assayed by MTT assay, which is a colorimetric short-term suspension culture assay in which the yellow tetrazolium salt (MTT) is reduced in metabolically active cells to form insoluble purple formazan crystals, which are solubilized by the addition of a detergent.
as §1, with “In order to inhibit caspase activation a sister plate of cells was pre-treated with zVAD (1001M, Enzyme Systems Products) for 1 hour before STS treatment.” left out
Secreted Aβ1-total was measured in the conditioned media of untreated cells or of cells treated with STS or STS plus zVAD using a sensitive ELISA (Wolfe, M. S. et al., Nature 398, 513-7 (1999). At least three different experiments were carried out and each experiment was performed at least in triplicate.

CNC(=O)[C@H](Cc1c[nH]c2ccccc12)NC(=O)[C@@H](CC(=O)NO)CC(C)C [GM6001]
generation of E-Cad/CTF1 (E-cadherin; GM6001 2.5 μM pre-incubated 30 min): inhibited

CC(C)C[C@H](NC(=O)[C@H](Cc1ccccc1)C[C@@H](O)[C@H](Cc1ccccc1)NC(=O)OC(C)(C)C)C(=O)N[C@@H](Cc1ccccc1)C(N)=O [L-685,458]
generation of E-Cad/CTF2 (E-cadherin; L-685,458 0.5 μM pre-incubated 30 min): inhibited

CC(=O)N[C@@H](CSC(=O)[C@]1([C@@H](O)C(C)C)NC(=O)[C@H](C)[C@@H]1O)C(=O)O [Lactacystin, lactacystin]
protein levels of nicastrin (proteasome; Lactacystin 10 μM for 24 hrs, medium containing 10% serum): increased | BACE full length and BACE-CTF levels (proteasome; Lactacystin treatment, H4 cells): did not affect

COc1cc([C@@H]2c3cc4c(cc3[C@@H](O[C@@H]3O[C@@H]5CO[C@@H](C)O[C@H]5[C@H](O)[C@H]3O)[C@H]3COC(=O)[C@H]23)OCO4)cc(OC)c1O [etoposide]
BACE protein levels (BACE): increase | Secreted Aβ1-42 [1]: increased | Secreted Aβtotal [1]: increased
